These results are taken from US20230118114A1, “BIOERODIBLE LIFE SUPPORT HYDROGELS FOR THE DELIVERY OF VIABLE MITOCHONDRIA” (University of Kentucky Research Foundation, priority 2021, published 2023).

Test [1] concerns mitochondria isolated from spinal cord injury site. Kind of test: Mitochondrial respiration (OCR) of spinal cord mitochondria after contusion SCI. It counts as in vivo, rats. To be noted: 24 hours after SCI; MitoTxp 100 µg intraspinal within 3 hr; ALC 300 mg/kg i.p. at 3 hours plus booster 6 hours later. The procedure:
Bars are Mean ± SD, n=5-6/group. *p<0.05 compared with sham; # p<0.05 versus vehicle.
Briefly, rats were contused at L1/L2 spinal level with 250 kDyn force using Infinite Horizon Impactor; Sham group received only T12 laminectomy. Designated injured rats were injected either intraspinally with healthy mitochondria (100 µg, MitoTxp) isolated from syngeneic rat soleus muscle within 3 hr and/or injected with ALC (300 mg/kg, i.p.) at 3 hours followed by a booster 6 hours later. Then, after 24 hours, mitochondria were isolated from spinal cord injury site and assessed for respiration (OCR).

The test system is the same in test [2]. The note with it: once daily ALC administered acutely after contusion SCI; cited from earlier work.
The next test relates to spinal cord injury (SCI). The note with it: cited from earlier work.

“Also recorded” adds a separate entry of the source.

Regarding `CC(=O)O[C@H](CC(=O)[O-])C[N+](C)(C)C` [ALC, acetyl-L-carnitine], the “States III & V.1 OCR” value in test [1] is “insignificant trends”. The mitochondrial respiration result in test [2] is “maintains mitochondrial respiration”. Moreover, the “long term hind limb locomotor function and tissue sparing” value in the test on spinal cord injury (SCI) (continued daily ALC for three weeks after contusion SCI) was “significantly improves long term hind limb locomotor function and tissue sparing”. Besides, the hind limb function entry with spinal cord injury (SCI) (injured rats, 3 weeks of daily ALC treatment, vs vehicle) is recorded as “able to step consistently with weight support on their hind limbs”. Also, the tissue sparing entry with spinal cord injury (SCI) (injured rats, 3 weeks of daily ALC treatment) is “increased gray and white matter tissue sparing”.
N-acetylcysteine amide [NACA]: in the test with spinal cord injury (SCI) (continuous NACA 150 and 300 mg/kg/day up to 7 days post-injury), the “long-term functional recovery and tissue sparing” value was “significant tissue sparing and improved recovery of hindlimb function; also recorded: significantly increased long-term functional recovery and tissue sparing”.
